Patent publication US20120149780A1, “Method of Use of Vitamin K as Energy Enhancer in Diverse Disease States” (priority 2009, published 2012)

Tests used:
[1] = literature supplemental trials, oral supplementation; cited from earlier work
[2] = 500 μg/day, 36-month, older men; cited from earlier work
[3] = Post-chemo restlessness/akathisia in ovarian cancer patient (case report); format: in vivo, human; conditions: Example 05: person, ovarian cancer under chemotherapy
Text: (§1) Person, was diagnosed to have bilateral ovarian cancer in 2005, with ascites and abdominal lymph node metastases. They have undergone surgery and several courses of chemotherapy. […] They are currently under chemotherapy cycles. They tolerated chemotherapy reasonably well but complained of marked fatigue and low energy levels. […] They were given a larger dose of vitamin K2-7 per day. […] They are continued on the dose of vitamin K2-7 for two months.

[4] = Blood pressure in individual subjects taking vitamin K2-7 (case reports); format: in vivo, human
Method: Person, with hypercholesterolemia (Lipid Profile; 200 mg—Total cholesterol) for which they are taking Atorvastatin 5 mg one per day and 75 mg of Aspirin one per/day since last five years. Underwent angioplasty. They were also having blood pressure which ranges from 136-134/90-88 mmHg. They were taking Telmisartan 40 mg/day from last 4 years for hypertension. Then about 6 months ago they started taking vitamin K2-7 in daily dose of 200 μg. Currently they have stopped taking anti-hypertensive medication from last 1 month. Over a period of 1 and ½ months it is observed that their blood pressure has dropped down to 118-114/78-84 mmHg. Now they are off any anti-hypertensive medicine and continues with vitamin K2-7 only.
(§2) Person was having hypertension (160/114 mmHg) but was not on any medication. They complained of fatigue and low energy level. They were put on 3 capsules per day of 100 μg of vitamin K2-7 for 1 month and then on 2 capsule per day of 350 μg of vitamin K2-7 for the next 2 months under close observation by medical doctor. […] They continued the medicine for next couple of month with same dose i.e. 2 capsules per day of 350 μg of vitamin K2-7. […] Then they were taken off from the treatment for 15 days. Blood pressure shot up to 146/108 mmHg, They were again put on vitamin K2-7, 350 μg, 2 capsules per day and their blood pressure came down to 136/100 mmHg.
(§3) Person, healthy otherwise, was having blood pressure on higher side i.e. 130/90 mmHg. They were advised to start taking vitamin K2-7, in a dose of 650 μg, one capsule per day.

[5] = Fatigue, energy level and exertion endurance in individual subjects (case reports); format: in vivo, human
Method: Person, suffering from general fatigue. They used to go to Gold gym 5-6 times per month. On the treadmill they used to walk at 5 km/hr speed at the start of the exercise and then gradually increase it to 6 km/hr in the next 15 minutes. When they started taking vitamin K2-7 350 μg per day, within 2 weeks of taking vitamin K2-7, they could start at 6 km/hr and go on up to 6.4 km/hr on the treadmill without feeling the strain they felt earlier. […] Their treadmill experience, was now smooth and ‘effortless’.
as §1
(§4) Their complaints were fatigue, low energy level, muscle cramps and tingling and numbness of lower limbs. […] These returned with drawal and were relieved with re-therapy. […] They were started 350 μg per day of vitamin K2-7 over the two months period.
as §2
Person, was heaving history of Spondylosis, Diabetes mellitus and Hypertension. Five years ago they were operated for cataract (right eye). They are on regular medicine i.e. Atenol50™, one per day, after breakfast, Insulin2™ one per day after lunch, and Diaonil5™, two times a day. They were complaining of fatigue and lack of energy so much so that they found ascending 20 steps at a time difficult with related exhaustion and breathlessness. They were advised to take vitamin K2-7, 350 μg, one cap per day.

[6] = tested on: CEA; assay: CEA levels in ovarian cancer patient (case report); format: in vivo, human; conditions: Example 05: person, under chemotherapy and vitamin K2-7
Text: as §1

[7] = Muscle cramps and neuropathic symptoms of lower limbs (case report); format: in vivo, human; conditions: Example 06: person
Method: as §4

[8] = Side effects / adverse effects noted during treatment (case reports); format: in vivo, human
Method: as §4, §3

CN(CC(=O)O)C(=N)N.O [Creatine monohydrate]
effect of supplementation on VO2max / aerobic capacity / exercise performance [1]: did not increase performance

O=C1O[C@H]([C@@H](O)CO)C(O)=C1O [vitamin C]
effect of supplementation on VO2max / aerobic capacity / exercise performance [1]: neither vitamin E nor C, either alone or in combination, enhanced exercise performance

NC(=O)C1=CN([C@@H]2O[C@H](COP(=O)(O)OP(=O)(O)OC[C@H]3O[C@@H](n4cnc5c(N)ncnc54)[C@H](O)[C@@H]3O)[C@@H](O)[C@H]2O)C=CC1 [NADH, Nicotinamide Adenine Dinucleotide Hydride]
effect of supplementation on VO2max / aerobic capacity / exercise performance [1]: no effects on maximal oxygen uptake VO2max, maximal anaerobic running time or mental performance

vitamin K
progression of insulin resistance [2]: reduction in progression of insulin resistance

CC(O)C(=O)O (stereo not drawn) [lactate]
effect of supplementation on VO2max / aerobic capacity / exercise performance [1]: unaffected

OC[C@H]1O[C@@H](n2cnc3c(O)ncnc32)[C@H](O)[C@@H]1O [Inosine]
effect of supplementation on VO2max / aerobic capacity / exercise performance [1]: no effect on aerobic performance

vitamin E
effect of supplementation on VO2max / aerobic capacity / exercise performance [1]: neither vitamin E nor C, either alone or in combination, enhanced exercise performance

CC(CN1c2ccccc2Sc2ccccc21)N(C)C (stereo not drawn) [phenergan, reference compound]
post-chemo restlessness/akathisia [3]: relieved

C[N+](C)(C)C[C@H](O)CC(=O)[O-] [L-carnitine]
effect of supplementation on VO2max / aerobic capacity / exercise performance [1]: unlikely to be associated with the enhanced exercise performance

CN(CC(=O)O)C(=N)N [creatine]
effect of supplementation on VO2max / aerobic capacity / exercise performance [1]: improves exercise performance

phosphate [Oral phosphate]
effect of supplementation on VO2max / aerobic capacity / exercise performance [1]: no improvement in aerobic capacity

CC(C)=CCC/C(C)=C/CC/C(C)=C/CC/C(C)=C/CC/C(C)=C/CC/C(C)=C/CC/C(C)=C/CC1=C(C)C(=O)c2ccccc2C1=O [vitamin K2-7]
blood pressure ([4]; Example 07: 2x350 μg/day restarted after 15 days off treatment (146/108 off treatment)): 136/100 | blood pressure ([4]; Example 07: continued 2x350 μg/day for next couple of months): 138/104 | blood pressure ([4]; Example 07: person, 3x100 μg/day 1 month then 2x350 μg/day 2 months, baseline 160/114): 140/108 | blood pressure ([4]; Example 08: person, 650 μg one capsule/day, 2 months, baseline 130/90): 112/80 | general fatigue ([5]; Example 04: person, 350 μg/day): general fatigue had reduced | treadmill starting speed ([5]; Example 04: person, 350 μg/day, within 2 weeks, earlier start 5 km/hr): 6 km/hr | treadmill speed reached ([5]; Example 04: person, 350 μg/day, within 2 weeks, earlier up to 6 km/hr): 6.4 km/hr | fatigue and energy level ([5]; Example 05: person, ovarian cancer under chemotherapy, 100 μg/day): not much relief in fatigue and energy level | fatigue and energy level ([5]; Example 05: person, ovarian cancer under chemotherapy, larger dose, within six weeks): less fatigue and significant improvement in the energy level | fatigue and low energy levels ([5]; Example 06: person, 100 μg/day): only mildly relieved | fatigue and energy level ([5]; Example 06: person, 350 μg/day over two months): significant relief in fatigue and reasonable increases in the energy level | fatigue and energy at work ([5]; Example 07: person, hypertensive, 2x350 μg/day): improvement in fatigue and feels more energetic at work | energy / ability to climb stairs ([5]; Example 09: person, diabetes and hypertension, 350 μg one cap/day, after a month): started feeling more energetic and would walk up the stairs easily without any problem | CEA levels [6]: dropped markedly | symptoms of the nerves and muscle (cramps, tingling and numbness of lower limbs) ([7]; 100 μg/day): significantly relieved | cramps and neuropathic symptoms ([7]; 350 μg/day over two months): markedly reduced | post-chemo restlessness/akathisia [3]: did not benefit | side effects ([8]; Example 06: person, 100 then 350 μg/day): no side effects | adverse effects ([8]; Example 08: person, 650 μg/day, 2 months): no adverse effects
